Reference: US20260217708A1, “FUSED BENZAZEPINE DERIVATIVES FOR USE IN THE TREATMENT OF CANCER AND EPILEPSY” (UCB BIOPHARMA SRL, priority 2023, published 2026)

How the values were obtained:
system Xc^− [1] = biological target: T1, system Xc^− (Homo sapiens, UniProt Q9UPY5); experiment: Cystine-induced glutamate release assay; assay type: cell-based; parameters: endogenous in cells; host or cells: H4 cells; settings: H4 cells, sodium-free HEPES buffer, 50 μM L-Cystine, 2 hours, Amplex Red glutamate readout; read-out: pIC50 Cystine-induced glutamate release assay (converted)
T1 sequence (Q9UPY5 1-501): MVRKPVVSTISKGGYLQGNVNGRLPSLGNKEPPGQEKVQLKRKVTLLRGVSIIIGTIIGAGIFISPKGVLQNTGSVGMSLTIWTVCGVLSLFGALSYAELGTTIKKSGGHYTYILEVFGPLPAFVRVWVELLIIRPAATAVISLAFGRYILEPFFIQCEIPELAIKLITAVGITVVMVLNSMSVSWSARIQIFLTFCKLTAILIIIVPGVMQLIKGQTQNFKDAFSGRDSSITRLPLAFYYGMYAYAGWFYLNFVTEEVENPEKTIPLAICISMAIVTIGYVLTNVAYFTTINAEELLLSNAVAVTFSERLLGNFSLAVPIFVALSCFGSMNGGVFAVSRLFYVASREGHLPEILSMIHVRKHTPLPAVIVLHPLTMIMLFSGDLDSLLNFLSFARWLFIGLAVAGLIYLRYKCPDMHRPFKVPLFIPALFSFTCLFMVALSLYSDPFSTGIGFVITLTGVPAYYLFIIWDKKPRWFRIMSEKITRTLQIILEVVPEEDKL
T1 sequence (P08195 1-529 partner): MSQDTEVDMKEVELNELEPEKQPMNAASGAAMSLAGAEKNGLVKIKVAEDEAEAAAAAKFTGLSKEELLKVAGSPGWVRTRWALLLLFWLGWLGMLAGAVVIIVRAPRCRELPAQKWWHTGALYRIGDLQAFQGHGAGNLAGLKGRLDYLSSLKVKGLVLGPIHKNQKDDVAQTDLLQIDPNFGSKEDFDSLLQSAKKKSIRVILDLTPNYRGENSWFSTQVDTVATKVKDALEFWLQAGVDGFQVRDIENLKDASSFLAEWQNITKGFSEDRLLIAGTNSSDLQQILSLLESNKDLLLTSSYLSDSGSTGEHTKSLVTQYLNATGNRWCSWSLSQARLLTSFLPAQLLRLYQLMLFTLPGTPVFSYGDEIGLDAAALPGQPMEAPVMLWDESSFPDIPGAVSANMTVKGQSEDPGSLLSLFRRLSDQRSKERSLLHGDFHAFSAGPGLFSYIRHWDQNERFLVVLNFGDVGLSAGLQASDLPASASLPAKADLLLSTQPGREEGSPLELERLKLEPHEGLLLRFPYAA
Method in brief: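 H4 cells in sodium-free HEPES buffer (pH 7.4), 2 days after plating; glutamate release induced with 50 μM L-cystine plus compound (1% DMSO), 2 h at 37 °C. Supernatant glutamate measured by Amplex Red fluorescence; IC50/pIC50 derived between 1% DMSO and 50 μM erastin controls.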

system Xc^− [2] = biological target: T1, system Xc^−; experiment: [^14C]L-Cystine uptake assay; assay type: cell-based; parameters: endogenous in cells; host or cells: H4 cells; settings: H4 cells, sodium-free HEPES buffer, 0.5 μM L-[14C]Cystine and 4.5 μM L-Cystine, 1 hour at 37° C.; read-out: pIC50 [^14C] L-Cystine uptake assay (converted)
Method in brief: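 H4 cells at 5×10^4 cells/well in sodium-free HEPES buffer were preincubated 15 min with compounds (1% DMSO). Uptake of 0.5 μM [14C]L-cystine plus 4.5 μM unlabelled L-cystine ran 1 hour at 37° C on scintillating plates. IC50 was set between 1% DMSO and 50 μM Erastin controls and expressed as pIC50.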

## Cc1cc2c(c(F)n1)-c1cccnc1[C@@H](C)C(=O)N2CC(=O)Nc1ccc(F)c(Cl)c1 [#241, N-(3-chloro-4-fluoro-phenyl)-2-[(10R)-3-fluoro-5,10-dimethyl-9-oxo-4,8,12-triazatricyclo[9.4.0.0^2,7]pentadeca-1(15),2,4,6,11,13-hexaen-8-yl]acetamide]
System Xc^− [1]
  IC50: < 15.8 nM
System Xc^− [2]
  IC50: 15.8 to 39.8 nM

## Cc1cc2c(c(F)n1)-c1cccnc1[C@@H](C)C(=O)N2CC(=O)Nc1ccc(Cl)cc1F [#242, N-(4-chloro-2-fluoro-phenyl)-2-[(10R)-3-fluoro-5,10-dimethyl-9-oxo-4,8,12-triazatricyclo[9.4.0.0^2,7]pentadeca-1(15),2,4,6,11,13-hexaen-8-yl]acetamide]
System Xc^− [1]
  IC50: 15.8 to 39.8 nM
System Xc^− [2]
  IC50: 39.8 to 100 nM

## Cc1cc2c(c(F)n1)-c1cccnc1[C@@H](C)C(=O)N2CC(=O)Nc1csc(Cl)c1 [#243, N-(5-chloro-3-thienyl)-2-[(10R)-3-fluoro-5,10-dimethyl-9-oxo-4,8,12-triazatricyclo[9.4.0.0^2,7]pentadeca-1(11),2(7),3,5,12,14-hexaen-8-yl]acetamide]
System Xc^− [1]
  IC50: 15.8 to 39.8 nM
System Xc^− [2]
  IC50: 39.8 to 100 nM

## Cc1cc2c(c(F)n1)-c1cccnc1[C@@H](C)C(=O)N2CC(=O)Nc1ccc(C(C)C)c(F)c1 [#244, 2-[(10R)-3-fluoro-5,10-dimethyl-9-oxo-4,8,12-triazatricyclo[9.4.0.0^2,7]pentadeca-1(11),2(7),3,5,12,14-hexaen-8-yl]-N-(3-fluoro-4-isopropyl-phenyl)acetamide]
System Xc^− [1]
  IC50: 15.8 to 39.8 nM
System Xc^− [2]
  IC50: 15.8 to 39.8 nM

## Cc1cc2c(c(F)n1)-c1cccnc1[C@@H](C)C(=O)N2CC(=O)Nc1ccc(C2(F)CC2)cc1 [#246, N-[4-(1-fluorocyclopropyl)phenyl]-2-[(10R)-3-fluoro-5,10-dimethyl-9-oxo-4,8,12-triazatricyclo[9.4.0.0^2,7]pentadeca-1(11),2(7),3,5,12,14-hexaen-8-yl]acetamide]
System Xc^− [1]
  IC50: < 15.8 nM
System Xc^− [2]
  IC50: < 15.8 nM

## Cc1cc2c(c(F)n1)-c1cccnc1[C@@H](C)C(=O)N2CC(=O)Nc1ccc(C(F)(F)F)cc1F [#247, 2-[(10R)-3-fluoro-5,10-dimethyl-9-oxo-4,8,12-triazatricyclo[9.4.0.0^2,7]pentadeca-1(11),2(7),3,5,12,14-hexaen-8-yl)-N-[2-fluoro-4-(trifluoromethyl)phenyl]acetamide]
System Xc^− [1]
  IC50: 39.8 to 100 nM
System Xc^− [2]
  IC50: 39.8 to 100 nM

## Cc1cc2c(c(F)n1)-c1cccnc1[C@@H](C)C(=O)N2CC(=O)Nc1ccc(C2(F)CC2)c(F)c1 [#248, 2-[(10R)-3-fluoro-5,10-dimethyl-9-oxo-4,8,12-triazatricyclo[9.4.0.0^2,7]pentadeca-1(11),2(7),3,5,12,14-hexaen-8-yl]-N-[3-fluoro-4-(1-fluorocyclopropyl)phenyl]acetamide]
System Xc^− [1]
  IC50: < 15.8 nM
System Xc^− [2]
  IC50: < 15.8 nM

## Cc1cc2c(c(F)n1)-c1cccnc1[C@@H](C)C(=O)N2CC(=O)Nc1ccc(Cl)c(F)c1F [#249, N-(4-chloro-2,3-difluoro-phenyl)-2-[(10R)-3-fluoro-5,10-dimethyl-9-oxo-4,8,12-triazatricyclo[9.4.0.0^2,7]pentadeca-1(15),2,4,6,11,13-hexaen-8-yl]acetamide]
System Xc^− [1]
  IC50: 39.8 to 100 nM
System Xc^− [2]
  IC50: 100 to 501 nM

## Cc1cc2c(c(=O)n1C)-c1cccnc1C(C)C(=O)N2CC(=O)Nc1ccc(Cl)c(F)c1 (stereo not shown) [#254, N-(4-chloro-3-fluoro-phenyl)-2-(4,5,10-trimethyl-3,9-dioxo-4,8,12-triazatricyclo[9.4.0.0^2,7]pentadeca-1(15),2(7),5,11,13-pentaen-8-yl)acetamide]
System Xc^− [1]
  IC50: < 15.8 nM
System Xc^− [2]
  IC50: < 15.8 nM

## Cc1cc2c(c(=O)n1C)-c1ccc(F)cc1C(C)C(=O)N2CC(=O)Nc1ccc(C(F)F)cc1 (stereo not shown) [#256, N-[4-(difluoromethyl)phenyl]-2-(9-fluoro-2,3,7-trimethyl-1,6-dioxo-7H-pyrido[4,3-d][3]benzazepin-5-yl)acetamide]
System Xc^− [1]
  IC50: < 15.8 nM
System Xc^− [2]
  IC50: < 15.8 nM

## COCCN(C)c1cc2c(c(F)n1)-c1cccnc1C(C)C(=O)N2CC(=O)Nc1ccc(Cl)c(F)c1 (stereo not shown) [#264, N-(4-chloro-3-fluoro-phenyl)-2-[3-fluoro-5-[2-methoxyethyl(methyl)amino]-10-methyl-9-oxo-4,8,12-triazatricyclo[9.4.0.0^2,7]pentadeca-1(15),2(7),3,5,11,13-hexaen-8-yl]acetamide]
System Xc^− [1]
  IC50: 15.8 to 39.8 nM
System Xc^− [2]
  IC50: < 15.8 nM

## CC1C(=O)N(CC(=O)Nc2ccc(C(F)F)cc2)c2cc(N3CCOCC3)nc(F)c2-c2cccnc21 (stereo not shown) [#271, N-[4-(difluoromethyl)phenyl]-2-(3-fluoro-10-methyl-5-morpholino-9-oxo-4.8,12-triazatricyclo[9.4.0.0^2,7]pentadeca-1(15),2,4,6,11,13-hexaen-8-yl)acetamide]
System Xc^− [1]
  IC50: 15.8 to 39.8 nM
System Xc^− [2]
  IC50: < 15.8 nM

## CC1C(=O)N(CC(=O)Nc2ccc(C(F)F)cc2)c2cc(N3CC[C@H]3CO)nc(F)c2-c2cccnc21 (stereo partly drawn) [#272, N-[4-(difluoromethyl)phenyl]-2-[3-fluoro-5-[(2S)-2-(hydroxymethyl)azetidin-1-yl]-10-methyl-9-oxo-4,8,12-triazatricyclo[9.4.0.0^2,7]pentadeca-1(15),2,4,6,11,13-hexaen-8-yl]acetamide]
System Xc^− [1]
  IC50: 15.8 to 39.8 nM
System Xc^− [2]
  IC50: 15.8 to 39.8 nM

## CC1C(=O)N(CC(=O)Nc2ccc(C(F)F)cc2)c2cc(N3CC[C@@H]3CO)nc(F)c2-c2cccnc21 (stereo partly drawn) [#273, N-[4-(difluoromethyl)phenyl]-2-[3-fluoro-5-[(2R)-2-(hydroxymethyl)azetidin-1-yl]-10-methyl-9-oxo-4,8,12-triazatricyclo[9.4.0.0^2,7]pentadeca-1(15),2,4,6,11,13-hexaen-8-yl]acetamide]
System Xc^− [1]
  IC50: < 15.8 nM
System Xc^− [2]
  IC50: < 15.8 nM

## O=C(CN1C(=O)Cc2ncccc2-c2c1cc(N1CC3(CC3)C1)nc2F)Nc1ccc(C(F)F)cc1 [#294, 2-[5-(5-azaspiro[2.3]hexan-5-yl)-3-fluoro-9-oxo-4,8,12-triazatricyclo[9.4.0.0^2,7]pentadeca-1(15),2,4,6,11,13-hexaen-8-yl]-N-[4-(difluoromethyl)phenyl]acetamide]
System Xc^− [1]
  IC50: 15.8 to 39.8 nM
System Xc^− [2]
  IC50: 39.8 to 100 nM

## O=C(CN1C(=O)Cc2ncccc2-c2c1cc(N1CC(F)(F)C1)nc2F)Nc1ccc(C(F)F)cc1 [#295, 2-[5-(3,3-difluoroazetidin-1-yl)-3-fluoro-9-oxo-4,8,12-triazatricyclo[9.4.0.0^2,7]pentadeca-1(15),2,4,6,11,13-hexaen-8-yl]-N-[4-(difluoromethyl)phenyl]acetamide]
System Xc^− [1]
  IC50: < 15.8 nM
System Xc^− [2]
  IC50: < 15.8 nM

## O=C(CN1C(=O)Cc2cc(F)ccc2-c2c1cc(N1CC(F)(F)C1)nc2F)Nc1ccc(C(F)F)cc1 [#296, 2-[3-(3,3-difluoroazetidin-1-yl)-1,9-difluoro-6-oxo-7H-pyrido[4,3-d][3]benzazepin-5-yl]-N-[4-(difluoromethyl)phenyl]acetamide]
System Xc^− [1]
  IC50: 39.8 to 100 nM
System Xc^− [2]
  IC50: 15.8 to 39.8 nM

## COc1ccc2c(c1)N(CC(=O)Nc1ccc(Cl)c(F)c1)C(=O)C(C)c1ncccc1-2 (stereo not shown) [#306, N-(4-chloro-3-fluoro-phenyl)-2-(9-methoxy-5-methyl-6-oxo-5H-pyrido[2,3-d][1]benzazepin-7-yl)acetamide]
System Xc^− [1]
  IC50: 15.8 to 39.8 nM
System Xc^− [2]
  IC50: 39.8 to 100 nM

## CC1C(=O)N(CC(=O)Nc2ccc(Cl)c(F)c2)c2cc(C#N)ccc2-c2cccnc21 (stereo not shown) [#311, N-(4-chloro-3-fluoro-phenyl)-2-(9-cyano-5-methyl-6-oxo-5H-pyrido[2,3-d][1]benzazepin-7-yl)acetamide]
System Xc^− [1]
  IC50: < 15.8 nM
System Xc^− [2]
  IC50: 39.8 to 100 nM

## CC1C(=O)N(CC(=O)Nc2ccc(Cl)c(F)c2)c2cc(C3CC3)c(=O)n(C)c2-c2ccccc21 (stereo not shown) [#321, N-(4-chloro-3-fluoro-phenyl)-2-(3-cyclopropyl-1,7-dimethyl-2,6-dioxo-7H-pyrido[3,2-d][3]benzazepin-5-yl)acetamide]
System Xc^− [1]
  IC50: 15.8 to 39.8 nM
System Xc^− [2]
  IC50: 15.8 to 39.8 nM
